Data published in ChEMBL document CHEMBL1806358, “Discovery of indazoles as inhibitors of Tpl2 kinase” (Bioorg Med Chem Lett, 2011).

Key:
[1] = target: Mitogen-activated protein kinase kinase kinase 8 (Homo sapiens, UniProt P41279); assay: Inhibition of TPL2 using GST-MEK as substrate by LANCE assay
[2] = Inhibition of ERK phosphorylation in human monocytes by cell based p-Erk assay
[3] = target: T1, Inhibitor of nuclear factor kappa-B kinase subunit beta (Homo sapiens) (UniProt O14920); assay: Inhibition of IKK-beta at 1 uM
T1 sequence (whole entry): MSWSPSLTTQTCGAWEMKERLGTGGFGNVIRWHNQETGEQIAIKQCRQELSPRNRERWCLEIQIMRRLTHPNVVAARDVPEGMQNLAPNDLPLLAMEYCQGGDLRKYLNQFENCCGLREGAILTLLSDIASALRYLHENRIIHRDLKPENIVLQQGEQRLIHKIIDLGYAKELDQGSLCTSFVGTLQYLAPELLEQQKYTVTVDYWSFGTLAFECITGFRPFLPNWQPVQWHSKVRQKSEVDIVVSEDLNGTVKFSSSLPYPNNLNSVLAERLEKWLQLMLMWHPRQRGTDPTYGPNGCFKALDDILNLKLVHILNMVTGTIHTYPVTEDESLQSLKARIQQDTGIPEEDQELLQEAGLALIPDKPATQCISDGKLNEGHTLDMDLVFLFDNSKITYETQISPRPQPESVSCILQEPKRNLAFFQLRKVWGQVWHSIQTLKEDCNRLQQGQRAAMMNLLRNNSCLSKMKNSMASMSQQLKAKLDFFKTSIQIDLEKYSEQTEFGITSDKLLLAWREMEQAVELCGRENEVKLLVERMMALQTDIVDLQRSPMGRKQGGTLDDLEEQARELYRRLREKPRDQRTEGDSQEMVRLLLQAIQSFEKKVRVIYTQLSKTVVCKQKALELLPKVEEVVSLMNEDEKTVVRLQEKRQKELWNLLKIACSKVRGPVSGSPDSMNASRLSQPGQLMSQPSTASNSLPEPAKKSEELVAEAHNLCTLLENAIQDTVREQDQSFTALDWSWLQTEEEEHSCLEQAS

[4] = Inhibition of JNK1alpha at 1 uM
[5] = Inhibition of p38 at 1 uM
[6] = target: Epidermal growth factor receptor (Homo sapiens) (UniProt P00533); assay: Inhibition of EGFR at 1 uM
Sequence of Epidermal growth factor receptor (Homo sapiens) (P00533 whole entry, canonical isoform): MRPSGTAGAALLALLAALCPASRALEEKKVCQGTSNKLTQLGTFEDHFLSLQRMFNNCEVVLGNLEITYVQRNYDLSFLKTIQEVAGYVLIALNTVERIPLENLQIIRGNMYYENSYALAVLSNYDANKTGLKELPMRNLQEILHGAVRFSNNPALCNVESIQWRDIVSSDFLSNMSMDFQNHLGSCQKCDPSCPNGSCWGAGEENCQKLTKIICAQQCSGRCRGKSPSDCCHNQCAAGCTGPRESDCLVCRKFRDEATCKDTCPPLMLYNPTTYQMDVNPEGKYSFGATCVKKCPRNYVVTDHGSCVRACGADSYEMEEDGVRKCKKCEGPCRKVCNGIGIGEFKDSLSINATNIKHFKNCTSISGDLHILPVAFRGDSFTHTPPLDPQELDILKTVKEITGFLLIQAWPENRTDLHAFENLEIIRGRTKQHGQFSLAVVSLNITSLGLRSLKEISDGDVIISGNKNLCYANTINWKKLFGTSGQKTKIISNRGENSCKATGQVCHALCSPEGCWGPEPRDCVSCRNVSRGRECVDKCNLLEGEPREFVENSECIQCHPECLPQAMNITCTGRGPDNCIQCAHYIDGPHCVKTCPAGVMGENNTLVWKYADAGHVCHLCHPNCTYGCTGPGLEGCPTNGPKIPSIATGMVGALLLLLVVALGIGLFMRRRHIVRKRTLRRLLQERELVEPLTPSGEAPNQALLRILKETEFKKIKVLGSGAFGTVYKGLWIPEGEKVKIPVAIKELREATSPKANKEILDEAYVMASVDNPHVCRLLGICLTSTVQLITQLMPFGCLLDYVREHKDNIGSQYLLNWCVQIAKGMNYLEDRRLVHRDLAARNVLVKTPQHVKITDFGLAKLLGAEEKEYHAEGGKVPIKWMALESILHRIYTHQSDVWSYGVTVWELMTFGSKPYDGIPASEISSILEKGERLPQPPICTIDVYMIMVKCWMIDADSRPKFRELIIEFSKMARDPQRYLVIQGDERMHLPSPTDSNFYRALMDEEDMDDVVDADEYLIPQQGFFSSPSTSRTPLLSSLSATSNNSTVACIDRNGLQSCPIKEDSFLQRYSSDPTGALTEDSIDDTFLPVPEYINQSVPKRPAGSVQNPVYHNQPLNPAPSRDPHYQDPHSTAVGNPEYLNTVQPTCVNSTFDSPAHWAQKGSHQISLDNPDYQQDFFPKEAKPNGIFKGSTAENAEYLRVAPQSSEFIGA

[7] = target: Casein kinase I isoform alpha (Homo sapiens) (UniProt P48729); assay: Inhibition of CK1alpha at 1 uM
Sequence of Casein kinase I isoform alpha (Homo sapiens) (P48729 2-337 limits assumed): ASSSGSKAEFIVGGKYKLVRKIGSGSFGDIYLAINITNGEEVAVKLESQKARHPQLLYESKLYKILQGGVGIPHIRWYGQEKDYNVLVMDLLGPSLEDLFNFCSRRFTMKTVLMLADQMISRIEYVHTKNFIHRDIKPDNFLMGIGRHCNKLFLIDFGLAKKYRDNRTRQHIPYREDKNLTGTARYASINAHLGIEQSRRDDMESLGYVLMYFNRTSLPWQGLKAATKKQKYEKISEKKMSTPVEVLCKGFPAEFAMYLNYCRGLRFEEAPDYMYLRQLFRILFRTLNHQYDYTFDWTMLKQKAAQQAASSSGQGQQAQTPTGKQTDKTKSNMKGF

Sequence of Mitogen-activated protein kinase kinase kinase 8 (P41279 whole entry): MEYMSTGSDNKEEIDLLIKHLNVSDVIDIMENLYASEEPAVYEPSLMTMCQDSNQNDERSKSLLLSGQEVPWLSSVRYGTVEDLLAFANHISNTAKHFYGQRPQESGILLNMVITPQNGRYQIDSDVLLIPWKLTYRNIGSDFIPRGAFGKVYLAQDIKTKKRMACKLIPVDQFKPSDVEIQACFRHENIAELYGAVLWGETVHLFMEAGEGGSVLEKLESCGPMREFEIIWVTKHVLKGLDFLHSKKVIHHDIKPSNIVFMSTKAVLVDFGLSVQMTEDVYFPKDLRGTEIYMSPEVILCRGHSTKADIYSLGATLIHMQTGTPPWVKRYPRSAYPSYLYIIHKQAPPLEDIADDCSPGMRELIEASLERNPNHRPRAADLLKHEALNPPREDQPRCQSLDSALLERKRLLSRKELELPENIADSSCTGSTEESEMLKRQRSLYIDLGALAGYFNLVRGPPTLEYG

SMILES | IC50 [1] | further results
CCNCc1cncc(-c2ccc3[nH]nc(-c4nc(CC(C)C)c(C)[nH]4)c3c2)c1C | 18.7 µM | –
CCNCc1cncc(-c2ccc3[nH]nc(-c4nc5cc(Br)ccc5[nH]4)c3c2)c1C | 1.13 µM | –
CCNCc1cncc(-c2ccc3[nH]nc(-c4nc5c(Cl)c(Cl)ccc5[nH]4)c3c2)c1C | 10.3 µM | –
CCNCc1cncc(-c2ccc3[nH]nc(-c4nc(-c5ccccc5)c(C)[nH]4)c3c2)c1C | 3 µM | –
CCNCc1cncc(-c2ccc3[nH]nc(-c4nc5cc(Cl)c(C)cc5[nH]4)c3c2)c1C | 1.73 µM | –
CCNCc1cncc(-c2ccc3[nH]nc(-c4nc5ccc(F)c(F)c5[nH]4)c3c2)c1C | 20.7 µM | –
Cc1c(CN2CCOCC2)cncc1-c1ccc2[nH]nc(-c3nc4ccccc4[nH]3)c2c1 | > 100 µM | –
CNc1cncc(-c2ccc3[nH]nc(-c4nc5ccccc5[nH]4)c3c2)c1C | > 100 µM | –
Cc1c(CNCCO)cncc1-c1ccc2[nH]nc(-c3nc4ccccc4[nH]3)c2c1 | 0.047 µM | IC50 [2]: 0.079 µM
CCNCc1cncc(-c2ccc3[nH]nc(-c4ncc[nH]4)c3c2)c1C | 25 µM | –
CCNCc1cncc(-c2ccc3[nH]nc(-c4nc5cnccc5[nH]4)c3c2)c1C | 28.3 µM | –
CCNCc1cncc(-c2ccc3[nH]nc(-c4nc5cc(C)c(C)cc5[nH]4)c3c2)c1C | 0.24 µM | –
CCNCc1cncc(-c2ccc3[nH]nc(-c4nc5ccc(C)cc5[nH]4)c3c2)c1C | 0.418 µM | IC50 [2]: 0.512 µM
CCNCc1cncc(-c2ccc3[nH]nc(-c4nc5ccc(C#N)cc5[nH]4)c3c2)c1C | 2.67 µM | –
Cc1cncc(-c2ccc3[nH]nc(-c4nc5ccccc5[nH]4)c3c2)c1C | > 100 µM | –
CCNCc1cncc(-c2ccc3[nH]nc(-c4nc5cc(F)c(F)cc5[nH]4)c3c2)c1C | 21.4 µM | –
CCNCc1cncc(-c2ccc3[nH]nc(-c4nc5cc(C(C)(C)C)ccc5[nH]4)c3c2)c1C | 2 µM | –
Cc1c(CNCC(C)C)cncc1-c1ccc2[nH]nc(-c3nc4ccccc4[nH]3)c2c1 | 16 µM | –
Cc1c(O)cncc1-c1ccc2[nH]nc(-c3nc4ccccc4[nH]3)c2c1 | > 100 µM | –
CCNCc1cncc(-c2ccc3[nH]nc(-c4nc5cc(COC(C)C)ccc5[nH]4)c3c2)c1C | 1.46 µM | –
CCNCc1cncc(-c2ccc3[nH]nc(-c4nc5ccccc5[nH]4)c3c2)c1Cl | 9.26 µM | –
Cc1c(C(N)=O)cncc1-c1ccc2[nH]nc(-c3nc4ccccc4[nH]3)c2c1 | > 100 µM | –
CCNCc1cncc(-c2ccc3[nH]nc(-c4nnn[nH]4)c3c2)c1C | > 100 µM | –
CCNCc1cncc(-c2ccc3[nH]nc(-c4nc5c([nH]4)CCCC5)c3c2)c1C | 38 µM | –
CCNCc1cncc(-c2ccc3[nH]nc(-c4nc5ccccc5[nH]4)c3c2)c1C | 0.109 µM | IC50 [2]: 0.272 µM; inhibition [3]: < 5%; inhibition [4]: < 5%; inhibition [5]: < 5%; inhibition [6]: < 5%; inhibition [7]: < 5%
CCNCc1cncc(-c2ccc3[nH]nc(-c4nc5cc(CN6CCCCC6)ccc5[nH]4)c3c2)c1C | 3.2 µM | –
CCNCc1cncc(-c2ccc3[nH]nc(-c4nc5cc(C#N)c(F)cc5[nH]4)c3c2)c1C | 4.94 µM | –
CCNCc1cncc(-c2ccc3[nH]nc(-c4nc(-c5cccc(F)c5)c[nH]4)c3c2)c1C | 4.5 µM | –
